Experimental data as given in US20200121589A1, “COMPOSITIONS FOR DRUG DELIVERY AND METHODS OF USE THEREOF” (Viramal Limited, priority 2017, published 2020).
Where “and” joins values, the source holds several entries; their conditions need not be identical. Identical values can stand only once.

How the values were obtained:
[1] = Danazol concentrations in serum, peritoneal fluid and peritoneal tissue after oral or vaginal administration to female human subjects; format: in vivo; settings: for Systemic, Average / Systemic: serum
Experimental: The following example illustrates an administering of either a vaginal or oral formulation of danazol to female human subjects. The vaginal formulation was prepared as described above in Example 2. The oral formulation contained a total dose of 200 mg of danazol present in a capsule body of titanium dioxide and gelatin, and formulated with starch, lactose, talcum and magnesium stearate.
Subjects were administered danazol daily for five days. Six subjects were given a total dose of 600 mg of the oral danazol formulation (3×200 mg) once daily for five days. Seven subjects were given the vaginal formulation containing a total of 100 mg danazol. Samples were then taken from each subject in order to determine the concentration of danazol present systemically, in peritoneal fluid, and in peritoneal tissue. In order to quantify the amount of danazol present systemically, serum samples were collected from each subject and analyzed as described above in Example 3. In order to determine the amount of danazol present in the peritoneal fluid and tissue, endometrial lesions or suspected lesions were harvested, and the amount of danazol present in the samples was quantified as described in Example 3.

[2] = in vivo; cited from earlier work
[3] = Oral - 600 mg Danazol daily for five days, average of six subjects
[4] = Oral - 600 mg Danazol daily for five days, individual subject
[5] = Vaginal - 100 mg Danazol daily for five days, average of seven subjects
[6] = Vaginal - 100 mg Danazol daily for five days, individual subject

C#C[C@]1(O)CC[C@H]2[C@@H]3CCC4=Cc5oncc5C[C@]4(C)[C@H]3CC[C@@]21C [Danazol]
Peritoneal Fluid, Average [1, 3]: 83.4 ng/mL
Peritoneal Fluid [1, 4]: 134 ng/mL and 16.2 ng/mL and 132.8 ng/mL and 19.2 ng/mL and 130.7 ng/mL and 67.7 ng/mL
Systemic, Average [1, 3]: 156.5 ng/mL
Systemic [1, 4]: 209 ng/mL and 141.3 ng/mL and 167 ng/mL and 109.7 ng/mL and 198.3 ng/mL and 113.4 ng/mL
Estimated Peritoneal Tissue, Average [1, 5]: 16.5 ng/mg
Peritoneal Fluid, Average [1, 5]: 1.2 ng/mL
Estimated Peritoneal Tissue [1, 6]: 8.4 ng/mg and 13.2 ng/mg and 13.6 ng/mg and 17.2 ng/mg and 16.4 ng/mg and 29.2 ng/mg and 17.6 ng/mg
Peritoneal Fluid [1, 6]: 1 ng/mL (4×) and 1.2 ng/mL and 1.6 ng/mL and 1.8 ng/mL
Systemic, Average [1, 5]: 4.1 ng/mL
Systemic [1, 6]: 2.1 ng/mL and 3.3 ng/mL and 3.4 ng/mL and 4.3 ng/mL and 4.1 ng/mL and 7.3 ng/mL and 4.4 ng/mL
half-life [2]: 9.7 h
